Experimental data as given in patent US8969327B2, “Substituted androst-4-ene diones” (priority 2010, dated 2015).

Molecular target: T1, Purified P450arom (aromatase) reconstituted with P450-reductase (CPR) (Homo sapiens, UniProt P11511)
T1 sequence (P11511 1-503): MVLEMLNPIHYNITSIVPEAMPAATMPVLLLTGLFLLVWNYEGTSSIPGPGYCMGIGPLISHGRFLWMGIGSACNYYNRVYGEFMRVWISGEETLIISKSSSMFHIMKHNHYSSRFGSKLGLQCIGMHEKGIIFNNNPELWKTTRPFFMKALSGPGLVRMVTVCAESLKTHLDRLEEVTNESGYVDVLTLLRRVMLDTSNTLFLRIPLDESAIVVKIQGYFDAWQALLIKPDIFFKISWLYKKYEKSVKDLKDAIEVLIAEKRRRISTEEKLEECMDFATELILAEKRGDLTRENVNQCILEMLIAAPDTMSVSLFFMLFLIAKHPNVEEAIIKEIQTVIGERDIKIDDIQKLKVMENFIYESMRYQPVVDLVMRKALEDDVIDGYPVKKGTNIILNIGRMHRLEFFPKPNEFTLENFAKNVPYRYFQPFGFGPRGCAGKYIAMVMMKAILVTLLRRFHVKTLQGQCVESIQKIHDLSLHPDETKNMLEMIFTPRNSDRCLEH
Test: Measurement of aromatase activity by 3H-water method
Type: biochemical
Details: substrate 0.24 μM [1β-3H, 4-14C] androstenedione, 37° C., 20 minutes

[1] = compound concentration 0.1 (μmol)
[2] = compound concentration 1 (μmol)
[3] = compound concentration 10 (μmol)

Row | SMILES | % Inhibition [1] | % Inhibition [2] | % Inhibition [3]
1 | C[C@]12C=CC(=O)C=C1[C@H](OCC#Cc1ccc(Cl)c(Cl)c1)C[C@@H]1[C@@H]2CC[C@]2(C)C(=O)CC[C@@H]12 [HDDG-053, (6R,8R,9S,10R,13S,14S)-6-((3-(3,4-dichlorophenyl)prop-2-yn-1-yl)oxy)-10,13-dimethyl-7,8,9,10,11,12,13,14,15,16-decahydro-3H-cyclopenta[α]phenanthrene-3,17(6H)-dione] | 95% | 91% | 
2 | C[C@]12C=CC(=O)C=C1[C@@H](Br)C[C@@H]1[C@@H]2CC[C@]2(C)C(=O)CC[C@@H]12 [HDDG-040] | 54% | 94% | 98%
3 | C[C@]12C=CC(=O)C=C1[C@H](OCc1ccccc1)C[C@@H]1[C@@H]2CC[C@]2(C)C(=O)CC[C@@H]12 [HDDG-016] |  |  | 52%
4 | CCCCO[C@@H]1C[C@@H]2[C@H](CC[C@]3(C)C(=O)CC[C@@H]23)[C@@]2(C)CCC(=O)C=C12 [HDDG-052] | 47% | 95% | 87%
5 | CCC(=O)O[C@@H]1C[C@@H]2[C@H](CC[C@]3(C)C(=O)CC[C@@H]23)[C@@]2(C)C=CC(=O)C=C12 [HDDG-030] | 3% | 0% | 29%
6 | CC(=O)OC1=C(O)C=C[C@@]2(C)C1=CC[C@@H]1[C@@H]2CC[C@]2(C)C(=O)CC[C@@H]12 [HDDG-039] | 33% | 98% | 88%
7 | C[C@]12C=CC(O)=C(OC(=O)Cc3ccccc3)C1=CC[C@@H]1[C@@H]2CC[C@]2(C)C(=O)CC[C@@H]12 [HDDG-019] | 29% |  | 54%
8 | COC1=C(O)CC[C@@]2(C)C1=CC[C@@H]1[C@@H]2CC[C@]2(C)C(=O)CC[C@@H]12 [HDDG-020] | 21% | 72% | 61%
9 | C[C@]12CCC(O)=C(OCc3ccccc3)C1=CC[C@@H]1[C@@H]2CC[C@]2(C)C(=O)CC[C@@H]12 [HDDG-050, (8R,9S,10R,13S,14S)-4-(benzyloxy)-3-hydroxy-10,13-dimethyl-7,8,9,10,11,12,13,14,15,16-decahydro-1H-cyclopenta[α]phenanthren-17(2H)-one] | 75% | 96% | 100%
